These results are taken from ChEMBL document CHEMBL1122657, “Dopaminergic agonists: comparative actions of amine and sulfonium analogues of dopamine” (J Med Chem, 1984).

Holding throughout (type): functional
For one experiment, the species on record is Mus musculus. As to the kind of experiment: Compound concentration that causes inhibition of [3H]-acetyl choline release by 50% was determined using reserpine-alpha MPT treated mice striatal slices.
A short description of experiment [1]: Effect (1.0 uM) on K+-evoked release of [3H]acetylcholine from striatal slices of reserpine-alpha MPT treated mice evoked by two successive exposures (S1and S2) at 55 and 90 min after the start of perfusion.
The nature of experiment [2]: Effect (0.0 uM) on K+-evoked release of [3H]acetylcholine from striatal slices of reserpine-alpha MPT treated mice evoked by two successive exposures (S1and S2) at 55 and 90 min after the start of perfusion.
A short description of experiment [3]: Effect (3.0 uM) on K+-evoked release of [3H]acetylcholine from striatal slices of reserpine-alpha MPT treated mice evoked by two successive exposures (S1and S2) at 55 and 90 min after the start of perfusion.
The nature of experiment [4]: Effect (0.3 uM) on K+-evoked release of [3H]acetylcholine from striatal slices of reserpine-alpha MPT treated mice evoked by two successive exposures (S1and S2) at 55 and 90 min after the start of perfusion.

As a reminder, the IC50 is the concentration at which inhibition is half-maximal. A higher IC50 goes with weaker potency.

The compound `CN(C)CCc1ccc(O)c(O)c1` displayed an IC50 in the experiment filed under Mus musculus of 10 µM.

On to `C[S+](C)c1ccc2cc(O)c(O)cc2c1.[Br-]`, for which the Ratio in experiment [1] is reported as 0.81; in experiment [2], 0.98; in experiment [3], 0.86; in experiment [4], 0.85.

In the experiment filed under Mus musculus, `NCCc1ccc(O)c(O)c1` [DOPAMINE] registered an IC50 of 10 µM.

`NC1CCc2cc(O)c(O)cc2C1` (stereo not drawn) yielded an IC50 in the experiment listed under Mus musculus of 0.01 µM.

For `CC(N)Cc1ccc(O)c(O)c1` (stereo not drawn), the IC50 in the experiment listed under Mus musculus came out at 10 µM.
